Assay results: patent publication US11905268B2, “Anthranilic acid derivatives and their use in the treatment of human cancers” (UNIVERSITY OF CENTRAL FLORIDA RESEARCH FOUNDATION, INC., priority 2018, dated 2024)
Read-outs that look alike come from different tables or passages of the source.

Legend:
CHO cells [1] = test: Cytotoxicity screen in CHO cells; conditions: for IC50 at 48 h: Chinese hamster, CHO K1 cells; for Tox (Ant44) / tox (DFMO Assay): toxic above the stated concentration, CHO cells; for Tox (Ant44): listed with Ant44 assay; for tox (DFMO Assay): listed with DFMO assay
Method: CHO K1 cells were grown in growth medium to 70% confluency and washed in PBS and trypsinized. […] Cells were spun at 100×g for 1 minute and incubated at 37° C. in a humidified CO2 incubator for 24 hours. […] Cellular ATP content was then assayed by adding 3 uL of ATPLite with a Beckman BioRAPTR FRD dispenser and incubated for 10 minutes at room temperature. Plates were spun at 200×g for 1 minute and read on a Perkin Elmer Viewlux multimode plate reader using luminescence mode. This assay was used for testing dose-response of dry powders.
CHO K1 cells were grown in growth medium to 70% confluency and washed in PBS and trypsinized. Cells were plated in assay medium at 10000 cells/mL for 200 cells per well using a Thermo Multidrop Combi in 20 uL into a white Greiner plate. Cells were spun at 100×g for 1 minute and incubated at 37° C. in a humidified CO2 incubator for 24 hours. […] This was followed by adding by 10 μL of assay medium to all wells with a Beckman BioRAPTR FRD dispenser. The plates were spun at 200×g for 1 minute and incubated at 37° C. in a humidified 5% CO2 incubator for 48 hours. Cellular ATP content was then assayed by adding 20 μL of ATPLite with a Beckman BioRAPTR FRD dispenser and incubated for 10 min at room temperature. Plates were spun at 200×g for 1 minute and read on a Perkin Elmer Envision for multimode plate reader using luminescence mode. Duplicates were run for each compound concentration, and the curves represent the average of the duplicates as percent viability.
The final compound concentration was either 20 μM or 10 μg/mL (depending upon the compound source). A successful PTI in Assay 1 would block the uptake of the toxic Ant44 probe and rescue the cells back to >90% relative growth vs an untreated control. It was critical to also evaluate the toxicity of the PTI by itself as a toxic PTI would give a false negative in Assay1 (and a false positive in Assay 2). […] Assay 2 then evaluated the ability of the compound to inhibit the uptake of a rescuing dose of Spermidine (Spd, 1 μM) into DFMO-treated CHO cells.

CHO cells [2] = test: Ant44 rescue assay in CHO cells (Assay 1); format: cell-based, Chinese hamster; conditions: for IC50 / EC50: Cricetulus griseus; for IC50: CHO, Table 7, read-out: SAR IC50 Ant44 assay; for EC50 / Ant44 EC50: Table 1 HTS top hits, CHO cells; for EC50: read-out: Ant44 EC50
Method: CHO K1 cells were grown in growth medium (RPMI+10% FBS+1×P/S+1% l-glutamine) to 70% confluency, washed in PBS and trypsinized. Cells were plated in assay medium (serum free RPMI+2% FBS+1×l-glutamine+1×P/S+[…] aminoguanidine) at 50000 cells/mL for 200 cells per well in 4 ul using a Thermo Multidrop Combi into a 1536-well white Aurora plate.
Ant44 is a cytotoxic polyamine, i.e., N^1-(9-anthracenyl)-homospermidine. A non-toxic PTI compound would block entry or intracellular trafficking of the Ant44 toxin and rescue the cells back to high viability. Therefore, this screen tested for compounds which rescued cells from Ant44 toxicity. […] This was followed by adding 10 uL of 10 uM Ant44 (FAC 2 uM) in assay medium with a Beckman BioRAPTR FRD dispenser or 10 uL of cells added in assay medium (positive control).

[3] = test system: DFMO treated Chinese hamster ovary (CHO) cells; test: DFMO/spermidine rescue assay in CHO cells (Assay 2); format: cell-based; conditions: Cricetulus griseus
Method: In the reconfirmation assay compounds were run in quadruplicate. […] A PTI compound is expected to block the entry or disrupt the intracellular trafficking of spermidine and inhibit the ability of spermidine to rescue the growth or viability of DFMO treated cells.
DFMO/Spermidine assay Here cells were treated with an inhibitor of polyamine biosynthesis (DFMO) and rescued back to high viability by the presence of exogenous polyamine (spermidine). Putative PTI compounds were screened for their ability to block the entry or intracellular trafficking of exogenous spermidine (or otherwise disrupt the intracellular trafficking of spermidine) by measuring cell viability in the presence of DFMO+spermidine+PTI compound. […] This was followed by adding 10 μL of […] and 5 μM spermidine (FAC 5 mM DFMO and 1 μM spermidine) in assay medium with a Beckman BioRAPTR FRD dispenser or 10 μL of 5 mM DFMO added in assay medium (positive control). […] A PTI compound is expected to block the entry or disrupt the intracellular trafficking of spermidine and inhibit the ability of spermidine to rescue the growth or viability of DFMO treated cells Cytotoxicity

[4] = CHO, Table 7, read-out: SAR IC50 DFMO assay
[5] = Table 1 HTS top hits, CHO cells, read-out: DFMO Assay IC50

| SMILES | IC50 (CHO cells [1]; Cricetulus griseus, CHO, 48 h, read-out: 48 h IC50) | IC50 at 48 h (CHO cells [1]) | Tox (Ant44) (CHO cells [1]) | tox (DFMO Assay) (CHO cells [1]) | IC50 (CHO cells [2]) | EC50 (CHO cells [2]) | IC50 [3, 4] | IC50 [3, 5] | Ant44 EC50 (CHO cells [2]) |
| --- | --- | --- | --- | --- | --- | --- | --- | --- | --- |
| NCCC[C@](N)(C(=O)O)C(F)F [DFMO, alpha-difluoromethylornithine, reference compound] | 4200 µM | – | – | – | – | – | – | – | – |
| COc1ccccc1C(=O)Nc1ccc(N2CCN(c3cc(Cl)ccc3C)CC2)cc1C(=O)O [SBI-0351221, 5-(4-(5-chloro-2-methylphenyl)piperazin-1-yl)-2-(2-methoxybenzamido)benzoic acid] | – | 19 µM | SBI- 0351221.0002 (10 EC50) Tox >10 μM | SBI- 0351221.0002 (IC50 ~10), toxic >10 μM | 2 µM | 10 µM | 21 µM | ~10 µM | – |
| Cc1ccc(C)c(N2CCN(c3ccc(N4C(=O)CC(c5ccccc5)C4=O)cc3[N+](=O)[O-])CC2)c1 (centres unmarked) [SBI-0372958] | – | 32 µM | – | – | – | – | 27 µM | – | – |
| COc1ccc(CC(=O)Nc2ccc(N3CCN(c4cc(Cl)ccc4C)CC3)cc2C(=O)O)cc1 [SBI-0754480] | – | 24 µM | – | > 20 µM | 32 µM | 31 µM | – | 5 to 10 µM | – |
| COc1ccccc1N1CCN(c2ccc(N3C(=O)CCC3=O)cc2[N+](=O)[O-])CC1 [SBI-0800661] | – | 27 µM | – | – | > 40 µM | – | 30 µM | > 20 µM | SBI- 0800661.0001 No effect |
| COc1ccc(C(=O)Nc2ccc(N3CCN(c4cc(Cl)ccc4C)CC3)c(C(=O)O)c2)cc1 [SBI-0800662] | – | 14 µM | – | – | > 40 µM | – | 5 µM | ~5 µM | SBI- 0800662.0001 No effect |
| Cc1cccc(N2CCN(c3ccc(NC(=O)c4ccccc4F)cc3C(=O)O)CC2C)c1 (centres unmarked) [SBI-0800663] | – | > 40 µM | – | – | – | – | > 40 µM | – | – |
| COc1ccccc1N1CCN(c2ccc(NC(=O)c3cccs3)cc2C(=O)O)CC1 [SBI-0800666] | – | > 40 µM | – | – | > 40 µM | – | 27 µM | 20 to 32 µM | SBI- 0800666.0001 No effect |
| Cc1ccc(C(=O)Nc2ccc(N3CCN(c4cc(Cl)ccc4C)CC3)c(C(=O)O)c2)cc1 [SBI-0800669] | – | 12 µM | – | > 10 µM | > 40 µM | – | 5 µM | 2 to 5 µM | SBI- 0800669.0001 No effect |
| COc1ccccc1N1CCN(c2ccc(NC(=O)c3ccccc3Cl)c(C(=O)O)c2)CC1 [SBI-0800670] | – | 36 µM | SBI- 0800670.0001 (20 EC50) Tox >20 μM | > 15 µM | 16 µM | 20 µM | – | 10 to 15 µM | – |
